Experimental data published in patent US20140051662A1 (priority 2011, published 2014).
Where two headings read alike, the source gives them in different places.

Tests used:
[1] = test system: NCI-H929 cells (t(4;14) positive); assay: thymidine proliferation assay, NCI-H929; assay type: cell-based; settings: Homo sapiens
Procedure: (§1) Multiple myeloma cell lines RPMI 8226, U266 (t(4;14) negative) and OPM2, LP1, NCI-H929 (t(4;14) positive) were cultured in RPMI medium (Gibco-BRL) supplemented with 10% fetal calf serum (FCS, Life Technologies), 100 units/ml penicillin, 100 μg/ml streptomycin, except LP1 which were cultured in DMEM (Gibco-BRL). Bone marrow plasma cells were CD138-selected using MACS systems (Miltenyi Biotec, Germany). […] [6-^3H] thymidine (Amersham Biosciences, UK) was added (1 μCi/well) for 16 hours. Thymidine incorporation was measured by liquid scintillation counting (Wallace, PerkinElmer). All experiments were performed in triplicate.

intrinsic PDGF receptor = assay: tyrosine phosphorylation in Ba/F3 cells (Western), PDGF receptor positive control; assay type: cell-based; settings: FIG. 1B
[2] = test system: human cord blood mast cells; settings: cited from earlier work
[3] = test system: LP1 cells (t(4;14) positive); assay: thymidine proliferation assay, LP1; assay type: cell-based, human
Procedure: as §1

[4] = test system: fresh plasma cells from patients with t(4;14) multiple myeloma expressing FGFR3; assay: proliferation of fresh plasma cells from patients; assay type: cell-based, human
Procedure: Bone marrow plasma cells were CD138-selected using MACS systems (Miltenyi Biotec, Germany). […] [6-^3H] thymidine (Amersham Biosciences, UK) was added (1 μCi/well) for 16 hours. Thymidine incorporation was measured by liquid scintillation counting (Wallace, PerkinElmer). All experiments were performed in triplicate.

[5] = test system: U266 cells (t(4;14) negative); assay: thymidine proliferation assay, U266; assay type: cell-based, human
Procedure: as §1

[6] = test system: RPMI 8226 cells (t(4;14) negative); assay: thymidine proliferation assay, RPMI 8226; assay type: cell-based, human
Procedure: as §1

[7] = test system: OPM2 cells (t(4;14) positive); assay: thymidine proliferation assay, OPM2; assay type: cell-based, human
Procedure: as §1

Lyn = Lyn (Homo sapiens, UniProt P07948); assay: inhibition of Lyn kinase
Chain of Lyn (P07948 whole entry, species assumed): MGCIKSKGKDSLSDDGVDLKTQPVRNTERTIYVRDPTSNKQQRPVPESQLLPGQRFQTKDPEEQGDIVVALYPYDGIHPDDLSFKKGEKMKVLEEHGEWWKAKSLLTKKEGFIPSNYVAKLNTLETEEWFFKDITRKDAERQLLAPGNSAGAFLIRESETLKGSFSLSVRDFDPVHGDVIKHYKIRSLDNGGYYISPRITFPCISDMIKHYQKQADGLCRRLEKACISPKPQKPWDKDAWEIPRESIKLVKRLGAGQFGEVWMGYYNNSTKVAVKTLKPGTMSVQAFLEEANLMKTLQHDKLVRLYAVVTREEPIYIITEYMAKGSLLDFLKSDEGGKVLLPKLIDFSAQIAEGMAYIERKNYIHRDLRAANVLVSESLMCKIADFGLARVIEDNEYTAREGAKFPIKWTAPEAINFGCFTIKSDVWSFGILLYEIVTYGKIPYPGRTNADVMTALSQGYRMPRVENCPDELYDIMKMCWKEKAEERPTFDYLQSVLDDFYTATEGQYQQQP

[8] = test system: patients with relapsed or refractory t(4;14) multiple myeloma
[9] = test system: patients with relapsing or refractory multiple myeloma; assay: open-label phase 2 study, masitinib plus bortezomib/dexamethasone (VD); assay type: in vivo, human
Excerpt: Initially, this study was to investigate the safety and efficacy of masitinib administered in combination with the chemotherapy regimens of masitinib plus (dexamethasone/bortezomib/thalidomide); or masitinib plus (dexamethasone/bortezomib/adriamycin). However, after early preliminary results both these latter arms were eliminated from the study due to a tendency of higher incidence of adverse events or because these were not considered a gold standard treatment in this pathology. […] Velcade: 1.3 mg/m^2 intravenously; Level 1: Days 1 and 4; Level 2: Days 1, 4, 8 and 11 Dexamethasone: 40 mg/day, orally; Level 1: Days 1 to 4; Level 2: Days 1 to 4, 8 and 11 Adriamycin: 9 mg/m2 intravenously (bolus or perfusion); Days 1 to 4 Thalidomide: 200 mg/day, orally, once daily in the evening […] The two dosing regimens of the bortezomib plus dexamethasone combination (VD) were successively tested. After the observation that a low level of VD was well tolerated in four patients, the following patients were treated at a higher level. Included were patients with refractory or relapsing multiple myeloma: • With t(4; 14) translocation regardless of FGFR3 status, i.e. expressing FGFR3 or not; • or without a t(4; 14) translocation and relapsing within 1 year after the first line therapy including or not bone marrow transplantation. All patients were to receive combination therapy for the planned number of cycles or until disease progression, after which they could continue with masitinib plus dexamethasone in an extension phase.

[10] = test system: FGFR3 expressing Ba/F3 cells; assay: proliferation of FGFR3 expressing Ba/F3 cells; assay type: cell-based, mouse; settings: FIG. 1A, dose-dependent
Procedure: [6-^3H] thymidine (Amersham Biosciences, UK) was added (1 μCi/well) for 16 hours. Thymidine incorporation was measured by liquid scintillation counting (Wallace, PerkinElmer). All experiments were performed in triplicate.

[11] = test system: intracellular domain of FGFR3; assay: tyrosine phosphorylation in Ba/F3 cells (Western), FGFR3; assay type: cell-based, human; settings: masitinib 1 μM, 10 ng/ml FGF
[12] = beyond first relapse, aggressive relapse
[13] = beyond first relapse, non-aggressive relapse
[14] = masitinib plus dexamethasone combination therapy
[15] = more than two previous lines (beyond first relapse)
[16] = second line of treatment (first relapse)
[17] = 13 patients receiving VD as second line therapy (first relapse)
[18] = cohort VD Level 2, two patients
[19] = masitinib plus VD, all 17 patients

Cc1ccc(NC(=O)c2ccc(CN3CCN(C)CC3)cc2)cc1Nc1nc(-c2cccnc2)cs1 [masitinib, 4-(4-methylpiperazin-1-ylmethyl)-N-[4-methyl-3-(4-pyridin-3ylthiazol-2-ylamino)phenyl]benzamide]
inhibition at 2 µM [1]: 50%
phosphorylation of the PDGF receptor (intrinsic PDGF receptor): Inhibition
FcεRI-mediated degranulation [2]: inhibition
inhibition at 2 µM ([3]; Homo sapiens, LP-1): 50%
anti-proliferative interaction with dexamethasone ([3]; combination with dexamethasone, FGF-activated LP1): synergy
reduction of proliferation compared to dexamethasone alone ([3]; masitinib added to dexamethasone, 5 times less dexamethasone, FGF-activated LP1): 2 fold
proliferation [4]: inhibited
proliferation ([5]; U266, t(4;14) negative): significantly and dose-dependently decreased
anti-proliferative interaction with dexamethasone ([5]; combination with dexamethasone, U266): synergy
reduction of proliferation compared to dexamethasone alone ([5]; masitinib added to dexamethasone, 5 times less dexamethasone, U266): 7 fold
effect on proliferation [6]: no effect
anti-proliferative interaction with dexamethasone ([7]; combination with dexamethasone): synergy
reduction of proliferation compared to dexamethasone alone ([7]; masitinib added to dexamethasone, 5 times less dexamethasone): 2 fold
concentrations at which the kinase is inhibited (Lyn): submicromolar
patients with rashes ([8]; 2 patients): 8.3%
patients with suspected diarrhea ([8]; 10 patients): 41.7%
patients with drug-related edema ([8]; 13 patients): 54.2%
patients with nausea and/or vomiting ([8]; 16 patients, suspected AE): 66.7%
patients with suspected masitinib-related (or not assessable) adverse events ([8]; 21 of 24 patients): 87.5%
suspected masitinib-related (or not assessable) adverse events, total number ([8]; 24 patients): 145
median overall survival ([8]; all 24 patients): 19.8 months
median progression free survival (PFS) ([8]; all 24 patients): 3.9 months
survival ([8]; all patients with unsatisfactory response to previous treatment or in first relapse): at least 1 year
median overall survival [8, 12]: 8.1 months
median progression free survival (PFS) [8, 12]: 2.1 months
median overall survival [8, 13]: 25.4 months
median progression free survival (PFS) [8, 13]: 3.9 months
patients who discontinued because of AEs suspected to be masitinib-related ([8]; five patients): 20.8%
patients with severe edema ([8]; in vivo): two
patients with severe nausea ([8]; in vivo): Three
patients with Minor Response [8, 14]: 5 patients
patients with very good partial response (IMWG criteria) [8, 14]: one
response in patients with aggressive relapse [8, 14]: No response
median overall survival [8, 15]: 8.6 months
median progression free survival (PFS) [8, 15]: 3.0 months
patients still alive after 2 years ([8]; overall): 43.5%
median overall survival [8, 16]: 35.7 months
median progression free survival (PFS) [8, 16]: 9.1 months
patients with at least one suspected masitinib-related (or not assessable) serious adverse event ([8]; seven patients): 29.2%
patients with severe suspected adverse events (non-hematological grade 3/4) ([8]; seven patients): 29.2%
patients with acute renal failure ([8]; severe): two
Median PFS ([9]; 4 patients treated at level 1): 2.9 months
Median OS [9, 17]: 22.3 months
Median PFS [9, 17]: 9.3 months
Median PFS ([9]; 13 patients treated at level 2): 7.4 months
Median overall survival (OS) ([9]; 13 patients treated at level 2): 20.0 months
patients with best response of partial response ([9]; VD as second line therapy, eleven of 12): 92%
Median overall survival (OS) ([9]; all patients): 18.1 months
grade 4 adverse event suspected to be treatment-related ([9]; cohort VD Level 1): No grade 4 adverse event
patients with at least one AE suspected to be treatment-related ([9]; cohort VD Level 1, 4 patients): All patients
patients with at least one AE suspected to be treatment-related ([9]; cohort VD Level 2, 8 of 13 patients): 62%
patients with a grade 3 AE suspected to be treatment-related [9, 18]: 15%
patients with at least one grade 4 AE suspected to be treatment-related [9, 18]: 15%
patients still alive at the cut-off date ([9]; five of 17 VD patients, 31 Mar. 2010): 29%
patients with a very good partial response ([9]; intent-to-treat population): five
response rate (complete response or partial response) ([9]; intent-to-treat population): 75%
patients with at least one AE suspected to be treatment-related [9, 19]: 71%
patients with at least one grade 4 AE suspected to be treatment-related [9, 19]: 12%
median progression free survival (PFS) ([9]; overall VD population): 7.4 months
response rate (complete response or partial response) ([9]; per-protocol population): 86%
Median OS ([9]; t(4;14) negative patients): 25.3 months
Median PFS ([9]; t(4;14) negative patients): 9.3 months
patients with best response of partial response ([9]; t(4;14) negative patients, three of five): 60%
Median OS ([9]; t(4;14) positive patients): 17.1 months
Median PFS ([9]; t(4;14) positive patients): 5.9 months
patients with best response of partial response ([9]; t(4;14) positive patients, 8 out of 10): 80%
growth of BaF3 cell expressing the intracellular kinase domain of FGFR3 [10]: inhibited
phosphorylation of the intracellular domain of FGFR3 [11]: inhibited
